Like-named read-outs stand apart in the source and are kept apart here.
Columns and labels:
3hibdh = type: cell-based, microorganisms shown in Table 1
C4-LysR = assay: GFP reporter inserted at C4-LysR position; type: cell-based, Pseudomonas denitrificans; conditions: w 3-HP 25 mM
Description: The effect of the O1 and O2 operators on biosynthesis of the C4-LysR protein and the mmsadh expression was examined by using a green fluorescent protein (GFP) as a reporter (Table 2). In Table 2, the effect of the C4-LysR protein and the O1 and O2 operators on the expression of the C4-LysR and the mmsadh. The relative size of the GFP was shown relative to the wild type in the absence of 3-HP. the C4-LysR protein was either not present or was produced by a constitutive promoter, and a plasmid was prepared to control the expression of the GFP upon the existing promoter having the O1 and O2 operators. Then, the experiment was carried out by inserting the prepared plasmid into a host of P. denitrificans from which genes between the C4-LysR and the mmsadh was deleted. Accordingly, the expression of the GFP was suppressed by the C4-LysR protein itself. That is, when the C4-LysR is expressed, the GFP expression was reduced by more than 10-fold. In addition, the expression regulation was also constant regardless of the presence of 3-HP. In this regard, it was confirmed that the transcription of C4-LysR mRNA was negatively regulated by the C4-LysR protein. This experiment was repeated by using a promoter that randomized the O1 and O2 operators to eliminate the symmetrical dyad. As a result, in the case where the O1 or O2 operator site was randomized, the GFP expression was not regulated by the C4-LysR protein, referring that the C4-LysR protein in the P. denitrificans strain was negatively regulated by the strain itself.

3hpdh = assay: RT-PCR relative mRNA levels of 3-HP degrading genes in various microorganisms (Table 7); type: cell-based, microorganisms shown in Table 1
[1] = in the microorganisms (Table 7), 25 mM 3-HP in nutrient medium

## O=C(O)CCO [3-HP, 3-hydroxypropionic acid]
3hibdh; Streptomyces nodosus
  Relative mRNA level 3hibdh + 3-HP: 6.72
3hibdh; Tatlockia micdadei
  Relative mRNA level 3hibdh + 3-HP: 6.61
3hibdh; Thalassospira xiamenensis
  Relative mRNA level 3hibdh + 3-HP: 7.02
3hibdh; Variovorax paradoxus
  Relative mRNA level 3hibdh + 3-HP: 6.59
3hibdh; Verminephrobacter eiseniae
  Relative mRNA level 3hibdh + 3-HP: 6.43
3hibdh; Vibrio furnissii
  Relative mRNA level 3hibdh + 3-HP: 6.03
3hibdh; Xanthobacter autotrophicus
  Relative mRNA level 3hibdh + 3-HP: 6.23
3hibdh; Xanthomonas campestri
  Relative mRNA level 3hibdh + 3-HP: 5.81
3hibdh; [1]
  increase of expression of 3hibdh by 3-HP: 14 fold
C4-LysR; O1 & O2 mutation
  relative size of GFP (relative to wild type in the absence of 3-HP): 10
C4-LysR; O1 mutation
  relative size of GFP (relative to wild type in the absence of 3-HP): 10
C4-LysR; O2 mutation
  relative size of GFP (relative to wild type in the absence of 3-HP): 1
C4-LysR; wildtype
  relative size of GFP (relative to wild type in the absence of 3-HP): 1
C4-LysR; ΔC4-LysR
  relative size of GFP (relative to wild type in the absence of 3-HP): 10
3hpdh
  Relative mRNA level 3hpdh + 3-HP: 0.19
3hpdh; Achromobacter denitrificans, + 3-HP
  Relative mRNA level 3hpdh + 3-HP: 0.24
3hpdh; Acidovorax avenae subsp., + 3-HP
  Relative mRNA level 3hpdh + 3-HP: 0.28
3hpdh; Acidovorax sp., + 3-HP
  Relative mRNA level 3hpdh + 3-HP: 0.31
3hpdh; Acinetobacter baumannii, + 3-HP
  Relative mRNA level 3hpdh + 3-HP: 0.19
3hpdh; Agrobacterium sp., + 3-HP
  Relative mRNA level 3hpdh + 3-HP: 0.27
3hpdh; Alcaligenes faecalis, + 3-HP
  Relative mRNA level 3hpdh + 3-HP: 0.26
3hpdh; Alcanivorax hongdengensis, + 3-HP
  Relative mRNA level 3hpdh + 3-HP: 0.27
3hpdh; Alicychphilus denitrificans, + 3-HP
  Relative mRNA level 3hpdh + 3-HP: 0.30
3hpdh; Alteromonas marina, + 3-HP
  Relative mRNA level 3hpdh + 3-HP: 0.34
3hpdh; Azospirillum brasilensse, + 3-HP
  Relative mRNA level 3hpdh + 3-HP: 0.41
3hpdh; Bordetella avium, + 3-HP
  Relative mRNA level 3hpdh + 3-HP: 0.45
3hpdh; Bradyrhizobium japonicum, + 3-HP
  Relative mRNA level 3hpdh + 3-HP: 0.52
3hpdh; Burkholderia ambifaria, + 3-HP
  Relative mRNA level 3hpdh + 3-HP: 0.31
3hpdh; Catenulispora acidiphilia, + 3-HP
  Relative mRNA level 3hpdh + 3-HP: 0.41
3hpdh; Caulobacter sp., + 3-HP
  Relative mRNA level 3hpdh + 3-HP: 0.45
3hpdh; Chromobacterium violaceum, + 3-HP
  Relative mRNA level 3hpdh + 3-HP: 0.25
3hpdh; Comamonas testosteroni, + 3-HP
  Relative mRNA level 3hpdh + 3-HP: 0.24
3hpdh; Corynebacterium vitaeruminis, + 3-HP
  Relative mRNA level 3hpdh + 3-HP: 0.28
3hpdh; Cupriavidus necator, + 3-HP
  Relative mRNA level 3hpdh + 3-HP: 0.21
3hpdh; Glaciecola nitratireducens, + 3-HP
  Relative mRNA level 3hpdh + 3-HP: 0.30
3hpdh; Gordonia bronchialis, + 3-HP
  Relative mRNA level 3hpdh + 3-HP: 0.29
3hpdh; Hahella chijuensis, + 3-HP
  Relative mRNA level 3hpdh + 3-HP: 0.28
3hpdh; Halomonas elongata, + 3-HP
  Relative mRNA level 3hpdh + 3-HP: 0.32
3hpdh; Hirschia litorea, + 3-HP
  Relative mRNA level 3hpdh + 3-HP: 0.34
3hpdh; Idiomarina sp., + 3-HP
  Relative mRNA level 3hpdh + 3-HP: 0.42
3hpdh; Janthinobacterium lividum, + 3-HP
  Relative mRNA level 3hpdh + 3-HP: 0.33
3hpdh; Kitasatospora setae, + 3-HP
  Relative mRNA level 3hpdh + 3-HP: 0.36
3hpdh; Kutzneria albida, + 3-HP
  Relative mRNA level 3hpdh + 3-HP: 0.41
3hpdh; Methylobacterium sp., + 3-HP
  Relative mRNA level 3hpdh + 3-HP: 0.45
3hpdh; Novosphingobium sp., + 3-HP
  Relative mRNA level 3hpdh + 3-HP: 0.39
3hpdh; Oceanimonas smirnovii, + 3-HP
  Relative mRNA level 3hpdh + 3-HP: 0.24
3hpdh; Paracoccus sp., + 3-HP
  Relative mRNA level 3hpdh + 3-HP: 0.25
3hpdh; Parvibaculum lavamentivorans, + 3-HP
  Relative mRNA level 3hpdh + 3-HP: 0.28
3hpdh; Phenylobacterium kunshanensis, + 3-HP
  Relative mRNA level 3hpdh + 3-HP: 0.33
3hpdh; Polynucleobacter necessarius asymbioticus, + 3-HP
  Relative mRNA level 3hpdh + 3-HP: 0.45
3hpdh; Pseudogulbenkiania sp., + 3-HP
  Relative mRNA level 3hpdh + 3-HP: 0.26
3hpdh; Pseudomonas denitrificans ATCC13867, + 3-HP
  Relative mRNA level 3hpdh + 3-HP: 0.23
3hpdh; Pseudomonas fluorescens, + 3-HP
  Relative mRNA level 3hpdh + 3-HP: 0.27
3hpdh; Pseudomonas knackmussii, + 3-HP
  Relative mRNA level 3hpdh + 3-HP: 0.25
3hpdh; Pseudomonas protegens, + 3-HP
  Relative mRNA level 3hpdh + 3-HP: 0.19
3hpdh; Psychrobacter phenylpyruvicus, + 3-HP
  Relative mRNA level 3hpdh + 3-HP: 0.37
3hpdh; Rhodomicrobium vannielli, + 3-HP
  Relative mRNA level 3hpdh + 3-HP: 0.41
3hpdh; Segniliparus rotundus, + 3-HP
  Relative mRNA level 3hpdh + 3-HP: 0.27
3hpdh; Shewanella oneidensis, + 3-HP
  Relative mRNA level 3hpdh + 3-HP: 0.28
3hpdh; Simiduia agarovorans, + 3-HP
  Relative mRNA level 3hpdh + 3-HP: 0.29
3hpdh; Sphingobium chlorophenolicum, + 3-HP
  Relative mRNA level 3hpdh + 3-HP: 0.33
3hpdh; Sphingomonas wittichii, + 3-HP
  Relative mRNA level 3hpdh + 3-HP: 0.45
3hpdh; Stenotrophomonas maltophilia, + 3-HP
  Relative mRNA level 3hpdh + 3-HP: 0.31
3hpdh; Streptomyces nodosus, + 3-HP
  Relative mRNA level 3hpdh + 3-HP: 0.39
3hpdh; Verminephrobacter eiseniae, + 3-HP
  Relative mRNA level 3hpdh + 3-HP: 0.43
3hpdh; Vibrio furnissii, + 3-HP
  Relative mRNA level 3hpdh + 3-HP: 0.39
3hpdh; Xanthobacter autotrophicus, + 3-HP
  Relative mRNA level 3hpdh + 3-HP: 0.27
3hpdh; Xanthomonas campestri, + 3-HP
  Relative mRNA level 3hpdh + 3-HP: 0.25
3hpdh; [1]
  increase of expression of 3hpdh by 3-HP: 6 fold

Reference: patent US10961539B2, “Promoter system inducing expression by 3-hydroxypropionic acid and method for biological production of 3-hydroxypropionic acid using same” (NOROO IC Co., Ltd., priority 2015, dated 2021)
